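Where inhibition never reached the appropriate level, the endpoint shown equals the highest concentration tested. Otherwise, values were interpolated linearly from a five-concentration, 48-hour dose response in 96-well plates. Abbreviation: GI50, concentration required for 50% inhibition of growth. Definition used: TGI = concentration required for complete inhibition of growth.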
What was measured:
Test in all cases: DTP human tumour cell line panel, 48 h
DMS 114 small cell lung = tested on: DMS 114 small cell lung
HOP-18 NSCLC = tested on: HOP-18 NSCLC
LXFL 529 NSCLC = tested on: LXFL 529 NSCLC
M19-MEL melanoma = tested on: M19-MEL melanoma
DMS 273 small cell lung = tested on: DMS 273 small cell lung
XF 498 CNS = tested on: XF 498 CNS
MDA-N = tested on: MDA-N

SMILES | TGI (DMS 114 small cell lung) | TGI (HOP-18 NSCLC) | TGI (LXFL 529 NSCLC) | TGI (M19-MEL melanoma) | TGI (DMS 273 small cell lung) | TGI (XF 498 CNS) | TGI (MDA-N) | GI50 (DMS 114 small cell lung) | GI50 (HOP-18 NSCLC) | GI50 (LXFL 529 NSCLC) | GI50 (M19-MEL melanoma) | GI50 (DMS 273 small cell lung) | GI50 (XF 498 CNS)
COC(=O)C1=C(C)N(NC(N)=O)C2(N)N(NC(N)=O)C(C)=C(C(=O)OC)C12C(=O)OC (stereo not drawn) | > 100 µM | > 100 µM | > 100 µM | > 100 µM | > 100 µM | > 100 µM | – | – | – | – | – | – | –
CCCN(CCCCC(NC(C)=O)C(=O)NCc1ccccc1)C(=O)NCCCl (stereo not drawn) | > 100 µM | > 100 µM | > 100 µM | > 100 µM | > 100 µM | > 100 µM | – | – | – | – | – | – | –
CC(C)C(=O)/C=C/c1ccccc1 | – | > 100 µM | > 100 µM | > 100 µM | > 100 µM | > 100 µM | – | – | – | – | – | – | –
CC(C)N(C(=O)C12C3C4C5(C#N)C3C1(I)C5C42I)C(C)C (stereo not drawn) | > 59.7 µM | > 100 µM | > 100 µM | > 100 µM | > 100 µM | > 100 µM | – | – | – | – | – | – | –
C=C1[C@@H](C)[C@H]2[C@H](Cc3ccccc3)NC(=O)[C@]23OC(=O)/C=C/[C@H](O)CCC[C@@H](C)C/C=C/[C@H]3[C@@H]1O | > 100 µM | 3.03 µM | – | > 100 µM | > 97 µM | 8.97 µM | > 100 µM | – | – | – | – | – | –
COC(=O)C1CC(C(=O)OC)c2nc3cc(C)ccc3nc21 (stereo not drawn) | > 100 µM | > 100 µM | > 100 µM | > 100 µM | > 100 µM | > 100 µM | – | – | – | – | – | – | –
CCOc1ccc(N=Cc2cccc3cccnc23)cc1 | > 100 µM | > 100 µM | > 100 µM | > 100 µM | > 100 µM | > 100 µM | – | – | – | – | – | – | –
COC(=O)C(CCS(=O)(=O)CC(=O)C(=O)Nc1cccc(C(C)=O)c1)C(=O)OC | > 55.2 µM | > 100 µM | > 100 µM | > 100 µM | > 100 µM | > 100 µM | – | – | – | – | – | – | –
O=S(=O)([O-])c1cccc2cccc(N=Cc3ccccc3[O-])c12.O=S(=O)([O-])c1cccc2cccc(N=Cc3ccccc3[O-])c12.[O]=[U]=[O] | > 100 µM | > 100 µM | > 100 µM | > 100 µM | > 100 µM | > 100 µM | – | 54 µM | > 100 µM | 54.5 µM | > 100 µM | 42.7 µM | > 100 µM
CC(=O)CCCCCCCCCCCC[C@@H]1CC[C@H](C)[C@H](O)N1 | > 100 µM | > 100 µM | > 100 µM | > 100 µM | > 100 µM | > 100 µM | – | – | – | – | – | – | –
O=C1C(Cl)C(c2cccc(O)c2)N1n1cnc2ccccc2c1=O (stereo not drawn) | > 100 µM | > 100 µM | > 100 µM | > 100 µM | > 100 µM | > 100 µM | – | – | – | – | – | – | –
O=C1C(Cl)=C(Cl)C(=O)N1C1C2CC3CC(C2)CC1C3 (stereo not drawn) | > 100 µM | > 100 µM | > 100 µM | > 100 µM | > 100 µM | > 100 µM | – | – | – | – | – | – | –
Clc1ccc(Cl)c2[s+]snc12 | > 66.8 µM | > 100 µM | > 100 µM | > 100 µM | > 62.7 µM | > 100 µM | – | – | – | – | – | – | –
